{"source": "paper PMC10322960", "about": "(European Journal of Drug Metabolism and Pharmacokinetics, 2023)", "key": {"OATP1B1": {"target": "T1, OATP1B1 (Homo sapiens, UniProt Q9Y6L6)", "T1 sequence (Q9Y6L6 1-691)": "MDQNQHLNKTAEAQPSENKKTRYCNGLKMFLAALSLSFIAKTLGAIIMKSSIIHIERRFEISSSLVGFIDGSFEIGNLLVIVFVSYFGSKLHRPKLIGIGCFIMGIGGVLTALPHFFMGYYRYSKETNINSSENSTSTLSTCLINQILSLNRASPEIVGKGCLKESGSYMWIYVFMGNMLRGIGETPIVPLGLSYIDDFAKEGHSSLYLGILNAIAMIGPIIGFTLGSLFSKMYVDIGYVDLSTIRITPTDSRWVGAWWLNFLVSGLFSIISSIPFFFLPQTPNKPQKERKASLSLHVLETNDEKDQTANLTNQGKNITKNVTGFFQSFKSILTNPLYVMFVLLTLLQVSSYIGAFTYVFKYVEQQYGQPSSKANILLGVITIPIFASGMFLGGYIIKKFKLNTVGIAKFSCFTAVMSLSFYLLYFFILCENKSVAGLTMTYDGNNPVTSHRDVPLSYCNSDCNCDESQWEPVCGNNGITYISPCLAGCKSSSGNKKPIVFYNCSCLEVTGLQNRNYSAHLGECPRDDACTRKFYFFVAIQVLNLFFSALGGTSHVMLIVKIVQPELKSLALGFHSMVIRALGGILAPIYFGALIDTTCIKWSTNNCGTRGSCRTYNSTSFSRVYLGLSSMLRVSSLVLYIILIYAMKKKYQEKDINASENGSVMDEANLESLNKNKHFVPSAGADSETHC", "assay": "OATP1B1 uptake substrate assay", "type": "in vitro ADME"}, "BCRP [1]": {"target": "T2, BCRP (Homo sapiens, UniProt Q9UNQ0)", "T2 sequence (Q9UNQ0 1-655)": "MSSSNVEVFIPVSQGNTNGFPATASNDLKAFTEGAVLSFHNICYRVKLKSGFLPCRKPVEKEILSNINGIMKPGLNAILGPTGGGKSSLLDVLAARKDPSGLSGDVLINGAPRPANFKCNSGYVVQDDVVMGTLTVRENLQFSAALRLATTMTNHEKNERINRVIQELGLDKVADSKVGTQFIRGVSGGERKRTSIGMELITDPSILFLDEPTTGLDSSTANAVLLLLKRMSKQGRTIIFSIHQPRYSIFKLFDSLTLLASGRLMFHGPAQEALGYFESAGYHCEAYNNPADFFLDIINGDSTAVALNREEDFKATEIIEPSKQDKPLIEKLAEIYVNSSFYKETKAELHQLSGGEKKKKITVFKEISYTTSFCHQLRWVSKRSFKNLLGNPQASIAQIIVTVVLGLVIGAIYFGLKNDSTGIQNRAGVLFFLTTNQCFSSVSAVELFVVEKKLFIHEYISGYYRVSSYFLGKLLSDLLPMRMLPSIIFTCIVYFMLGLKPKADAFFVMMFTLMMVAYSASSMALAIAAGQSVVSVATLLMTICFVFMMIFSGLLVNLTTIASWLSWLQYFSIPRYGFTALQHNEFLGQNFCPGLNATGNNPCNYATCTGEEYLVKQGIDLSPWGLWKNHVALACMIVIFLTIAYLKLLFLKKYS", "assay": "BCRP monolayer substrate assay", "type": "in vitro ADME"}, "OCT1": {"target": "OCT1 (Homo sapiens, UniProt O15245)", "sequence (O15245 whole entry)": "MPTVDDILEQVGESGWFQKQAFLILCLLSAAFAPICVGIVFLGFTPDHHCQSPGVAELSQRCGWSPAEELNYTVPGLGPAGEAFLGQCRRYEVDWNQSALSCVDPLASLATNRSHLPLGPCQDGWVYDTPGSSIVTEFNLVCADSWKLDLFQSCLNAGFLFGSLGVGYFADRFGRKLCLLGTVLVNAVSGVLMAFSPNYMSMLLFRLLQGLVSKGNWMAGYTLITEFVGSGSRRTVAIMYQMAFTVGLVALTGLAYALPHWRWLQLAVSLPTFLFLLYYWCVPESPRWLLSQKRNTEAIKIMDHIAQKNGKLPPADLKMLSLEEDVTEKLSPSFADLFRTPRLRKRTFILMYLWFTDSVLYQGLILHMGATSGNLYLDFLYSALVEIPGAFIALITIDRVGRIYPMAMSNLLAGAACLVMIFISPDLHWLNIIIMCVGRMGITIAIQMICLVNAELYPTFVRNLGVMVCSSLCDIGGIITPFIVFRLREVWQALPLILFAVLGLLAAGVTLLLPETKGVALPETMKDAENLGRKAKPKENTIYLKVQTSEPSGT", "assay": "OCT1 uptake substrate assay", "type": "in vitro ADME"}, "CYP1A2": {"tested_on": "CYP1A2", "details": "ocedurenone at 0.1, 1, or 10 μM, 72 h; inducer criterion 40%"}, "CYP2C9": {"target": "CYP2C9 (Homo sapiens, UniProt P11712)", "sequence (P11712 whole entry)": "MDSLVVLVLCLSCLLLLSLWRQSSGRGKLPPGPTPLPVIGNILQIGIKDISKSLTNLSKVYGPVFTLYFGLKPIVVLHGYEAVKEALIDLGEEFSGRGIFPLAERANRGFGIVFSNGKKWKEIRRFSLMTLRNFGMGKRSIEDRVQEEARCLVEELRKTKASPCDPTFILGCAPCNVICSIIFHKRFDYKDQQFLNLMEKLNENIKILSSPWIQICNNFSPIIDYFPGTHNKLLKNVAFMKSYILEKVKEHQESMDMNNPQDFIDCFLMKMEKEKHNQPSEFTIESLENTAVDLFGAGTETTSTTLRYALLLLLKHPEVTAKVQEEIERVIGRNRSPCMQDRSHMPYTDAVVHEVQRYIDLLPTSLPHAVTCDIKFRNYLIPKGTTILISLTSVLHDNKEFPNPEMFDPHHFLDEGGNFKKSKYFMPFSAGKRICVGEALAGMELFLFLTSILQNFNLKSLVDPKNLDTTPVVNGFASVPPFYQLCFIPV", "assay": "In vitro P450 inhibition, recombinant CYP2C9", "type": "in vitro ADME"}, "BCRP [2]": {"target": "T2, BCRP", "assay": "BCRP vesicular transport inhibition assay", "type": "in vitro ADME"}, "OAT1": {"target": "T3, OAT1 (Homo sapiens, UniProt Q4U2R8)", "T3 sequence (Q4U2R8 1-563)": "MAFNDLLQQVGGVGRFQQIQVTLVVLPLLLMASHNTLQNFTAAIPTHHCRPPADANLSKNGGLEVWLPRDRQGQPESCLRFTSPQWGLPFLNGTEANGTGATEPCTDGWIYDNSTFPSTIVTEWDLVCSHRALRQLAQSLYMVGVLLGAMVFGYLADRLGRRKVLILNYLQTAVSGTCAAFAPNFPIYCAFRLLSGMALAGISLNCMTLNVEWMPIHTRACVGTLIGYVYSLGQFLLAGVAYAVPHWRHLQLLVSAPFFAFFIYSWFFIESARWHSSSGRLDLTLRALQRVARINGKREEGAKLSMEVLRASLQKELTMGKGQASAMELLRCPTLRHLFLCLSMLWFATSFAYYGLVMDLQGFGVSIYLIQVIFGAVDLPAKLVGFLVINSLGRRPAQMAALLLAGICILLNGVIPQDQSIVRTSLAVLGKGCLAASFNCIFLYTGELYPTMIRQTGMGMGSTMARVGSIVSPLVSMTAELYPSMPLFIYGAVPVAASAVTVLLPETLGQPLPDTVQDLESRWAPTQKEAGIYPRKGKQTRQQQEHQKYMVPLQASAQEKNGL", "assay": "OAT1 uptake inhibition assay", "type": "in vitro ADME", "details": "0.63–40 μM"}, "CYP3A4": {"target": "CYP3A4 (Homo sapiens, UniProt P08684)", "sequence (P08684 whole entry)": "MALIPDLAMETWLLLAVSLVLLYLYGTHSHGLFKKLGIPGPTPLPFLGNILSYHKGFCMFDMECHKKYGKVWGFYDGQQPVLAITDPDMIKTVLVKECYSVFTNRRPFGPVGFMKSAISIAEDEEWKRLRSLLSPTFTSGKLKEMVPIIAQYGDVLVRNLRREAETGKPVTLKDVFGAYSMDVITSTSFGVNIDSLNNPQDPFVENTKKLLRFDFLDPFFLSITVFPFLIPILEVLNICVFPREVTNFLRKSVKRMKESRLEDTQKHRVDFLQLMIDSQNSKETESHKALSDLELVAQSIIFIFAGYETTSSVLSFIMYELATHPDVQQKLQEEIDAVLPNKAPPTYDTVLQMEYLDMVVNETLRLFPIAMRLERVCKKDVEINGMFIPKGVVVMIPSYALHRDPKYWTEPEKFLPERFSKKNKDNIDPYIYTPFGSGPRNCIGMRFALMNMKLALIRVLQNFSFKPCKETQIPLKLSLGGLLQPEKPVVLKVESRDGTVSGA", "type": "in vitro ADME", "details": "3 µm ocedurenone, NADPH, 60 min"}, "[3]": {"assay": "Phase 1 clinical drug–drug interaction study, plasma pharmacokinetics", "type": "in vivo, human"}, "[4]": {"details": "transporter-expressing vs control cells, 0.04–40 µm"}, "[5]": {"details": "ocedurenone + itraconazole (test) vs ocedurenone alone (reference), Cohort 1"}, "[6]": {"details": "ocedurenone + rifampin (test) vs ocedurenone alone (reference), Cohort 2"}}, "data": [{"smiles": "N#Cc1ccc(N2N=C3c4ccc(C(=O)N5CCC(O)CC5)nc4CC[C@@H]3[C@@H]2C2CCCC2)cc1Cl", "note": "[Ocedurenone, ocedurenone]", "values": [{"measurement": "Substrate, OATP1B1 UPT", "setting": "OATP1B1", "result": "not likely to be a substrate"}, {"measurement": "Maximum fold accumulation, OATP1B1 UPT", "setting": "OATP1B1; [4]", "result": 1.0}, {"measurement": "Substrate, BCRP ML", "setting": "BCRP [1]", "result": "likely a substrate"}, {"measurement": "Substrate, OCT1 UPT", "setting": "OCT1", "result": "not likely to be a substrate"}, {"measurement": "Maximum fold accumulation, OCT1 UPT", "setting": "OCT1; [4]", "result": 1.1}, {"measurement": "percent CYP1A2 induction (of positive control)", "setting": "CYP1A2", "result": "lower than 40%"}, {"measurement": "percent remaining activity of CYP2C9", "setting": "CYP2C9; ocedurenone at 200 μM", "result": 70.2, "unit": "%"}, {"measurement": "IC50", "setting": "CYP2C9; read-out: IC50 CYP2C9, recombinant CYP", "result": "> 200", "unit": "µM"}, {"measurement": "inhibition category CYP2C9", "setting": "CYP2C9; recombinant enzyme", "result": "little or no inhibition"}, {"measurement": "inhibition of BCRP at 40 µM", "setting": "BCRP [2]; first vesicular transport run, 40 µM", "result": 98, "unit": "%"}, {"measurement": "maximum inhibition of BCRP-mediated transport", "setting": "BCRP [2]; repeat with 7 concentrations, at 40 µm", "result": 98, "unit": "%"}, {"measurement": "interaction with human OAT1 transporter (inhibition)", "setting": "OAT1", "result": "No interaction"}, {"measurement": "metabolism in recombinant CYP3A4 incubation", "setting": "CYP3A4", "result": "Most extensive metabolism"}, {"measurement": "geometric least squares mean ratio (test:reference) and 90% CI, AUC0-inf", "setting": "[3]; [5]", "result": "199.5 (182.3, 218.3)"}, {"measurement": "geometric least squares mean ratio (test:reference) and 90% CI, AUClast", "setting": "[3]; [5]", "result": "161.0 (152.3, 170.3)"}, {"measurement": "geometric least squares mean ratio (test:reference) and 90% CI, Cmax", "setting": "[3]; [5]", "result": "107.4 (103.2, 111.8)"}, {"measurement": "geometric least squares mean ratio (test:reference) and 90% CI, AUC0-inf", "setting": "[3]; [6]", "result": "17.2 (16.2, 18.2)"}, {"measurement": "geometric least squares mean ratio (test:reference) and 90% CI, AUClast", "setting": "[3]; [6]", "result": "17.5 (16.6, 18.5)"}, {"measurement": "geometric least squares mean ratio (test:reference) and 90% CI, Cmax", "setting": "[3]; [6]", "result": "73.4 (69.5, 77.5)"}, {"measurement": "effect of rifampin on ocedurenone pharmacokinetics (interaction class)", "setting": "[3]; strong CYP3A4 inducer rifampin", "result": "strong (> 5-fold)"}, {"measurement": "effect of itraconazole on ocedurenone exposure (interaction class)", "setting": "[3]; strong CYP3A inhibitor itraconazole", "result": "weak (1.25- to 2-fold)"}]}]}
